ChEMBL document CHEMBL1128575, “Nonpeptidic inhibitors of human leukocyte elastase. 5. Design, synthesis, and X-ray crystallography of a series of orally active 5-aminopyrimidin-6-one-containing trifluoromethyl ketones” (J Med Chem, 1995)
In brackets after ≈: the same amount, converted by molar mass. Activity calls are given as the source filed them. The rule behind the calls is not given here.

Columns and labels:
Neutrophil elastase = biological target: T1, Neutrophil elastase (Homo sapiens, UniProt P08246); assay: In vitro inhibition of human leukocyte elastase mediated hydrolysis of the synthetic substrate MeO-Suc-Ala-Ala-Pro-Val-pNA
T1 sequence (P08246 whole entry): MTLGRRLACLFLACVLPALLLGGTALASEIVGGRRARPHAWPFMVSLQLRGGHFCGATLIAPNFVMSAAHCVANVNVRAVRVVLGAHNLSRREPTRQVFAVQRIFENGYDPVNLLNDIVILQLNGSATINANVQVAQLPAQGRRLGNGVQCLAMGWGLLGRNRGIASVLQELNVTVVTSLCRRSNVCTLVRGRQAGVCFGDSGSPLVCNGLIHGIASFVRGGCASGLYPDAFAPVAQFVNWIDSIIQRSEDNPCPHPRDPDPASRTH

Cricetinae gen. sp. [1] = assay: Compound at an oral dose of 20 mg/Kg (90 min prior to instillation of elastase) was tested for the inhibition of elastase-induced lung hemorrhage in hamster; type: functional, Cricetulus griseus
Cricetinae gen. sp. [2] = assay: Oral dose of 2.5 mg/Kg (90 min prior to instillation of elastase) was tested for the inhibition of elastase-induced lung hemorrhage in hamster; type: functional, Cricetulus griseus
Cricetinae gen. sp. [3] = assay: Oral dose of 2.5 mg/Kg (30 min prior to instillation of elastase) was tested for the inhibition of elastase-induced lung hemorrhage in hamster; Not active; type: functional, organism-based; settings: Cricetulus griseus
[4] = Selectivity ratio for bovine pancreatic chymotrypsin and HLE
Cricetinae gen. sp. [5] = assay: Oral dose of 20 mg/Kg (30 min prior to instillation of elastase) was tested for the inhibition of elastase-induced lung hemorrhage in hamster; type: functional, Cricetulus griseus
[6] = Partition coefficient (logP); type: physicochemical; settings: octanol/water
[7] = Solubility of compound in 0.01 M sodium phosphate buffer at pH = […]; type: physicochemical; settings: pH 7.4
Cricetinae gen. sp. [8] = assay: Oral dose of 2.5 mg/Kg (30 min prior to instillation of elastase) was tested for the inhibition of elastase-induced lung hemorrhage in hamster; type: functional, Cricetulus griseus
Cricetinae gen. sp. [9] = assay: Compound at an oral dose of 2.5 mg/Kg (90 min prior to instillation of elastase) was tested for the inhibition of elastase-induced lung hemorrhage in hamster; Not active; type: functional, organism-based; settings: Cricetulus griseus
Cricetinae gen. sp. [10] = assay: Oral dose of 20 mg/Kg (30 min prior to instillation of elastase) was tested for the inhibition of elastase-induced lung hemorrhage in hamster; Not active; type: functional, organism-based; settings: Cricetulus griseus
[11] = Area under the concentration vs time curve in rat at 10 mg/kg oral dose; type: ADME, organism-based; set-up: dose 10 mg/kg, route oral; settings: in vivo
[12] = Maximum concentration in plasma recorded in the period 0-6 hr post dose in rat at 10 mg/kg oral dose; type: ADME, organism-based; set-up: dose 10 mg/kg, route oral
[13] = Tmax is the time of maximum concentration in rat at 10 mg/kg oral dose; type: ADME, organism-based; set-up: dose 10 mg/kg, route oral; settings: in vivo
[14] = Tmax is the time of maximum concentration in hamster at 10 mg/kg oral dose; type: ADME, organism-based; set-up: dose 10 mg/kg, route oral; settings: cricetinae, in vivo
[15] = Half life in plasma in dog at 10 mg/kg oral dose; type: ADME, organism-based, Canis lupus familiaris; set-up: dose 10 mg/kg, route oral
[16] = Tmax is the time of maximum concentration in dog at 10 mg/kg oral dose; type: ADME, organism-based, Canis lupus familiaris; set-up: dose 10 mg/kg, route oral; settings: in vivo
[17] = Maximum concentration in plasma recorded 0-6 hr post dose in dog at 10 mg/kg oral dose; type: ADME, organism-based, Canis lupus familiaris; set-up: dose 10 mg/kg, route oral
[18] = Half life in plasma in hamster at 10 mg/kg oral dose; type: ADME, organism-based; set-up: dose 10 mg/kg, route oral; settings: cricetinae
[19] = Area under the concentration vs time curve in dog at 10 mg/kg oral dose; type: ADME, organism-based, Canis lupus familiaris; set-up: dose 10 mg/kg, route oral; settings: in vivo
[20] = Area under the concentration vs time curve in hamster at 10 mg/kg oral dose; type: ADME, organism-based; set-up: dose 10 mg/kg, route oral; settings: cricetinae, in vivo
[21] = Half life in plasma in rat at 10 mg/kg oral dose; type: ADME, organism-based; set-up: dose 10 mg/kg, route oral
[22] = Maximum concentration in plasma recorded in the period 0-6 hr post dose in hamster at 10 mg/kg oral dose; type: ADME, organism-based; set-up: dose 10 mg/kg, route oral; settings: cricetinae

CSC(=O)Nc1cnc(-c2ccccc2)n(CC(=O)NC(C(=O)C(F)(F)F)C(C)C)c1=O (stereo unspecified)
Ki (Neutrophil elastase): 16 nM | inhibition in vivo at 20 mg/kg (Cricetinae gen. sp. [1]): 57% | inhibition in vivo at 2.5 mg/kg (Cricetinae gen. sp. [2]): 32%

COC(=O)Nc1cnc(-c2ccc(F)cc2)n(CC(=O)NC(B2OC(C)(C)C(C)(C)O2)C(C)C)c1=O (stereo unspecified)
Ki (Neutrophil elastase): 7.7 nM | inhibition (Cricetinae gen. sp. [3]): inactive

CC(C)C(NC(=O)Cn1c(-c2cccs2)ncc(NC=O)c1=O)C(=O)C(F)(F)F (stereo unspecified)
Ki (Neutrophil elastase): 100 nM | inhibition in vivo at 20 mg/kg (Cricetinae gen. sp. [1]): 58% | inhibition in vivo at 2.5 mg/kg (Cricetinae gen. sp. [2]): 37%

CC(C)C(NC(=O)Cn1c(-c2cccs2)ncc(NC(=O)OCc2ccccc2)c1=O)C(=O)C(F)(F)F (stereo unspecified)
Ratio [4]: 162 | Ki (Neutrophil elastase): 11 nM | inhibition in vivo at 20 mg/kg (Cricetinae gen. sp. [5]): 57% | logP [6]: 2 | solubility [7]: 48 µg/mL (≈ 89.5 µM)

CC(C)C(NC(=O)Cn1c(-c2ccc(F)cc2)ncc(NS(=O)(=O)C2CCCCC2)c1=O)C(=O)C(F)(F)F (stereo unspecified)
Ki (Neutrophil elastase): 1.6 nM | inhibition (Cricetinae gen. sp. [3]): inactive

CC(C)C(NC(=O)Cn1c(-c2ccc(F)cc2)ncc(NC(=O)OCc2ccccc2)c1=O)C(=O)C(F)(F)F (stereo unspecified)
inhibition in vivo at 20 mg/kg (Cricetinae gen. sp. [5]): 54% | logP [6]: 2.2 | solubility [7]: 6.9 µg/mL (≈ 12.6 µM)

CC(C)C(NC(=O)Cn1c(-c2cccnc2)ncc(NC(=O)OCc2ccccc2)c1=O)C(=O)C(F)(F)F (stereo unspecified)
Ratio [4]: 245 | Ki (Neutrophil elastase): 33 nM | inhibition in vivo at 20 mg/kg (Cricetinae gen. sp. [5]): 59% | logP [6]: 1.3 | solubility [7]: 580 µg/mL (≈ 1090 µM)

CC(C)C(NC(=O)Cn1c(-c2cccs2)ncc(NC(=O)OCC(F)(F)F)c1=O)C(=O)C(F)(F)F (stereo unspecified)
Ki (Neutrophil elastase): 48 nM | inhibition in vivo at 20 mg/kg (Cricetinae gen. sp. [1]): 60% | inhibition in vivo at 2.5 mg/kg (Cricetinae gen. sp. [2]): 41%

CC(C)C(NC(=O)Cn1c(-c2ccccc2)ncc(NC(=O)C(F)(F)F)c1=O)C(=O)C(F)(F)F (stereo unspecified)
Ki (Neutrophil elastase): 94 nM | inhibition in vivo at 20 mg/kg (Cricetinae gen. sp. [5]): 73% | inhibition in vivo at 2.5 mg/kg (Cricetinae gen. sp. [8]): 37% | inhibition (Cricetinae gen. sp. [9]): inactive

CC(C)C(NC(=O)Cn1c(-c2ccc(F)cc2)ncc(NS(=O)(=O)C2CCCCC2)c1=O)B1OC(C)(C)C(C)(C)O1 (stereo unspecified)
Ki (Neutrophil elastase): 0.21 nM | inhibition in vivo at 2.5 mg/kg (Cricetinae gen. sp. [8]): 31% | inhibition (Cricetinae gen. sp. [9]): inactive

CC(C)c1ncc(NC(=O)OCc2ccccc2)c(=O)n1CC(=O)NC(C(=O)C(F)(F)F)C(C)C (stereo unspecified)
Ratio [4]: 100 | Ki (Neutrophil elastase): 170 nM | inhibition (Cricetinae gen. sp. [10]): inactive | logP [6]: 2.6 | solubility [7]: 40 µg/mL (≈ 80.6 µM)

CC(C)C(NC(=O)Cn1c(-c2cccs2)ncc(N)c1=O)B1OC(C)(C)C(C)(C)O1 (stereo unspecified)
Ki (Neutrophil elastase): 4.9 nM | inhibition in vivo at 20 mg/kg (Cricetinae gen. sp. [5]): 50% | inhibition (Cricetinae gen. sp. [3]): inactive

CC(C)C(NC(=O)Cn1c(-c2ccc(C(F)(F)F)cc2)ncc(NC(=O)OCc2ccccc2)c1=O)C(=O)C(F)(F)F (stereo unspecified)
Ratio [4]: 164 | Ki (Neutrophil elastase): 42 nM | inhibition (Cricetinae gen. sp. [10]): inactive | logP [6]: 2.3 | solubility [7]: 25 µg/mL (≈ 41.8 µM)

CC(C)C(NC(=O)Cn1c(-c2ccc(F)cc2)ncc(N)c1=O)C(=O)C(F)(F)F (stereo unspecified)
AUC [11]: 5170 ng·h/mL | Cmax [12]: 1900 ng/mL | Tmax [13]: 1 h | Tmax [14]: 0.25 h | inhibition in vivo at 20 mg/kg (Cricetinae gen. sp. [5]): 66% | half-life [15]: 0.967 h | Tmax [16]: 1 h | Cmax [17]: 3230 ng/mL | half-life [18]: 1.35 h | AUC [19]: 5950 ng·h/mL | inhibition in vivo at 2.5 mg/kg (Cricetinae gen. sp. [2]): 49% | inhibition in vivo at 2.5 mg/kg (Cricetinae gen. sp. [8]): 43% | AUC [20]: 1190 ng·h/mL | half-life [21]: 1.6 h | Cmax [22]: 750 ng/mL

Cc1cncc(C)c1COC(=O)Nc1cnc(-c2ccc(F)cc2)n(CC(=O)NC(B2OC(C)(C)C(C)(C)O2)C(C)C)c1=O (stereo unspecified)
Ki (Neutrophil elastase): 0.96 nM | inhibition (Cricetinae gen. sp. [3]): inactive

CC(C)C(NC(=O)Cn1c(C2CCCCC2)ncc(NC(=O)OCc2ccccc2)c1=O)C(=O)C(F)(F)F (stereo unspecified)
Ki (Neutrophil elastase): 57 nM | inhibition (Cricetinae gen. sp. [10]): inactive | logP [6]: 2.9 | solubility [7]: 42 µg/mL (≈ 78.3 µM)

COC(=O)Nc1cnc(-c2cccs2)n(CC(=O)NC(C(=O)C(F)(F)F)C(C)C)c1=O (stereo unspecified)
Ki (Neutrophil elastase): 42 nM | inhibition in vivo at 20 mg/kg (Cricetinae gen. sp. [5]): 80% | inhibition in vivo at 2.5 mg/kg (Cricetinae gen. sp. [8]): 49% | inhibition (Cricetinae gen. sp. [9]): inactive

CNc1cnc(-c2ccc(F)cc2)n(CC(=O)NC(C(=O)C(F)(F)F)C(C)C)c1=O (stereo unspecified)
Ki (Neutrophil elastase): 46 nM | inhibition in vivo at 20 mg/kg (Cricetinae gen. sp. [5]): 89% | inhibition in vivo at 2.5 mg/kg (Cricetinae gen. sp. [8]): 43% | inhibition (Cricetinae gen. sp. [9]): inactive

CC(C)C(NC(=O)Cn1c(-c2ccccc2)ncc(NC(=O)OCC(F)(F)F)c1=O)C(=O)C(F)(F)F (stereo unspecified)
Ki (Neutrophil elastase): 40 nM | inhibition in vivo at 20 mg/kg (Cricetinae gen. sp. [1]): 47% | inhibition in vivo at 2.5 mg/kg (Cricetinae gen. sp. [2]): 39%

CC(C)C(NC(=O)Cn1c(-c2ccc(F)cc2)ncc(N)c1=O)B1OC(C)(C)C(C)(C)O1 (stereo unspecified)
Ki (Neutrophil elastase): 6.2 nM | inhibition in vivo at 20 mg/kg (Cricetinae gen. sp. [5]): 39% | inhibition (Cricetinae gen. sp. [3]): inactive
